Assay results: patent US5932575A, “Cardiac diseases improving agents” (Kureha Chemical Industry Co., Ltd., priority 1997, dated 1999)
“And” between values parts separate entries of the source, which are not always exact repeats. Equal entries are not always repeated.

Assays:
[1] = test system: rats with renal diseases; settings: J. Pharmacol. Exp. Ther., 267: 657-663, 1993; cited from earlier work
[2] = test system: angiotensin converting enzyme (ACE); settings: cited from earlier work
[3] = test system: SHR rats, 3/4NPX cardiac hypertrophy model; experiment: Inhibitory action of myocardial disturbance, Test 1 (3/4NPX cardiac hypertrophy model); format: in vivo
Description: SHR rats were divided into control group and test group each having three animals and both groups were treated with 3/4NPX, an experimental cardiac hypertrophy model prepared by 3/4 partial nephrectomy, after eight weeks. […] After the oral administration,kidneys and heart were excised and their weight was determined.

[4] = test system: SHR rats, 3/4 NPX cardiac hypertrophy model; experiment: Inhibitory action of myocardial disturbance, Test 2 (3/4 NPX cardiac hypertrophy model); format: in vivo
Description: Similarly, 3/4 NPX (cardiac hypertrophy model caused by 3/4 partial nephrectomy) was carried out at four weeks point in a control group and test group of SHR rats each having two and three animals. […] After 11 weeks, kidneys and heart were excised and their weight was determined.

[5] = test system: ICR mice; experiment: Acute toxicity (oral, single dose); format: in vivo; settings: 500 mg/kg oral once, 0.5% methylcellulose, after six days
Description: Female 5-week-old ICR mice were divided to groups each having five animals and acclimated for a week. Compound Nos. 1-3, 7, 8, 11 and 13 each was dissolved or dispersed in 0.5% methylcelulose aqueous solution, respectively, and orally administered once at a dose of 500 mg/kg, then the number of dead animals was counted after six days.

[6] = test system: angiotensin II receptor; settings: cited from earlier work
[7] = molecular target: T1, type 2 (AT2) receptor (Bos taurus, UniProt G5E6F7); experiment: Affinity to angiotensin II type 2 receptor (binding assay); design: species or system bovine; settings: 37° C., one hour
T1 construct: Receptor: Derived from bovine cerebellum; from tissue; host or cells: bovine cerebellum
T1 sequence (G5E6F7 1-362): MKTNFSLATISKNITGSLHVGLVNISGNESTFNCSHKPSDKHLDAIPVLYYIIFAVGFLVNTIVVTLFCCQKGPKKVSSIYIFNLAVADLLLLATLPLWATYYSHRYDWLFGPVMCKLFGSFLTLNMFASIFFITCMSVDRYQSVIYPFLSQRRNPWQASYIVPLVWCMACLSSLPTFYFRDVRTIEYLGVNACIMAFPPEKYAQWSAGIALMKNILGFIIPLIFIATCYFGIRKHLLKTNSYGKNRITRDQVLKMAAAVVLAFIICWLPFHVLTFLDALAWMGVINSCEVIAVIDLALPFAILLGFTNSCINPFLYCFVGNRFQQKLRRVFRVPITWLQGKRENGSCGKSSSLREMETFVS
Description: Practically, determination of total binding of each compound was carried out as follows. A mixture of 0.025 ml of a predetermined concentration of test compound prepared by dissolving in DMSO, dilution with a buffer attached to the drug discovery system to 2-fold solution, 0.025 ml of a tracer and 0.2 ml of a receptor to make total volume of 0.25 ml was incubated at room temperature for three hours for type 1 angiotensin II (AT1) receptor or at 37° C. for one hour for type 2 (AT2) receptor. The reaction mixture was filtered under suction with CF/C filter paper for AT1 and CF/B filter paper for AT2. The used filter paper having the combination of the tracer and the receptor was determined with a γ-well counter (ARC-500, Aloka). Non-specific binding was determined with a similar manner by adding a large excess amount of displacer. The specific binding of test compound at a predetermined concentration was obtained by subtracting non-specific binding from respective total binding. In AT1, and AT2, a predetermined concentrations of test compound and a control compound were used to give the inhibitory rate, IC50 value of 50% inhibition, or binding inhibitory % at 100 μM, for binding of a radioactive ligand (tracer) and the receptor.
Receptor: Derived from bovine cerebellum
Tracer: ^125 ITyr^4angiotensin II
Control compound: Angiotensin II (human)
(Displacer): Angiotensin II (human)

[8] = test system: rats with renal diseases; experiment: Hypotensive action in rats with experimental renal disease (tail cuff); format: in vivo, rats (female Sprague-Dawley)
Description: The compounds of the present invention and a comparative compound, Dup 753, were orally administered by gavage to rats with renal diseases and hypotensive action was determined. Rats with experimental renal disease were prepared with conventional method by ligating branch of renal artery. That is, female Sprague-Dawley rats were anesthetized, left renal hilus was exposed and three of four second branches of renal artery were ligated remaining one branch. One week later, further right renal hilus including artery, vein and ureter was ligated to reduce renal function up to about 1/8 to those of normal animals. Rats were divided to make eight animals in one group, and 20 mg/kg of one test compound and water as a control were administered to each group. After two days, systolic blood pressure was determined with a blood pressure determination apparatus using tail cuff method (UR5000, Ueda Manufacturing Co., Ltd.).

[9] = J. Clin. Pharmacol., 30:155-158, 1990
[10] = test group average, 20 mg/kg in drinking water four weeks, after 16 weeks
[11] = test group individual animals 1-3 in order, 20 mg/kg, after 16 weeks, 20 mg/kg
[12] = test group average, 20 mg/kg in drinking water, after 9 weeks
[13] = test group average, 20 mg/kg in drinking water, after 11 weeks
[14] = test group individual animals 1-3 in order, 20 mg/kg, after 9 weeks, 20 mg/kg
[15] = test group individual animals 1-3 in order, 20 mg/kg, after 11 weeks, 20 mg/kg

What does the source list for `CCCN(Cc1ccc(-c2ccccc2-c2nnn[nH]2)cc1)c1ncccc1C(=O)O` [A-81988, 2-[N-propyl-N-[[2'-(1H-tetrazol-5-yl)biphenyl-4-yl]methyl]amino]-pyridine-3-carboxylic acid]?
hypotension (in words) [1]: accompanied with hypotension; proteinuria (in words) [1]: improvement in proteinuria

For `C[C@H](CS)C(=O)N1CCC[C@H]1C(=O)O` [Captopril], which “blood pressure (in words)” value [2, 9] is on record?
The value was “lower blood pressure”.

What about the “adverse reactions (in words)” value [2] of the same compound?
The value was “dry cough or adverse reaction of acute renal failure”.

Which results are given for `CCCCC(=O)N(Cc1ccc(C(=O)OCCN(C)C)cc1)c1cc(C(=O)N2CCOCC2)ccc1N(C)C` [Compound No. 1, 4-dimethylamino-3-N-[[[4-(2'-dimethylaminoethoxycarbonyl)phenyl]-methyl]valeramido]benzoic acid morpholide]?
cardiac disturbance (in words) ([3]; Test 1, 20 mg/kg): inhibited cardiac disturbance; heart weight (in words) ([3]; Test 1, 20 mg/kg): decrease of heart weight due to cardiac hypertrophy; hypotension or kidney disturbance (in words) ([3]; Test 1, 20 mg/kg): without inducing hypotension or kidney disturbance; kidney weight (in words) ([3]; Test 1, 20 mg/kg): decreased inhibition of kidney weight increase; BP: blood pressure, average [3, 10]: 232 mmHg; BUN: blood urea nitrogen, average [3, 10]: 58 mg/dL; BW: body weight, average [3, 10]: 385 g; CCr: creatinine clearance, average [3, 10]: 0.76 mL/min; Cr: blood creatinine, average [3, 10]: 1.0 mg/dL; HW: heart weight, average [3, 10]: 1.493 g; KW: kidney weight, average [3, 10]: 1.451 g; RW: relative weight (heart), average [3, 10]: 0.388%; RW: relative weight (kidney), average [3, 10]: 0.376%; U-Pro.: urinary protein, average [3, 10]: 114.6 mg/day; BP: blood pressure, individual animal [3, 11]: 247 mmHg and 221 mmHg and 229 mmHg; BUN: blood urea nitrogen, individual animal [3, 11]: 55 mg/dL and 50 mg/dL and 70 mg/dL; BW: body weight, individual animal [3, 11]: 415 g and 346 g and 394 g; CCr: creatinine clearance, individual animal [3, 11]: 0.88 mL/min and 0.74 mL/min and 0.66 mL/min; Cr: blood creatinine, individual animal [3, 11]: 1.0 mg/dL and 0.9 mg/dL and 1.2 mg/dL; HW: heart weight, individual animal [3, 11]: 1.546 g and 1.326 g and 1.606 g; KW: kidney weight, individual animal [3, 11]: 1.515 g and 1.269 g and 1.568 g; RW: relative weight (heart), individual animal [3, 11]: 0.373% and 0.383% and 0.408%; RW: relative weight (kidney), individual animal [3, 11]: 0.365% and 0.366% and 0.398%; U-Pro.: urinary protein, individual animal [3, 11]: 119.8 mg/day and 50.5 mg/day and 174.6 mg/day; heart weight (in words) ([4]; Test 2, 20 mg/kg): declined heart weight; myocardial disturbance (in words) ([4]; Test 2, 20 mg/kg): inhibition of myocardial disturbance; urinary protein (in words) ([4]; Test 2, 20 mg/kg): significant decrease of urinary protein; BP: blood pressure, average [4, 12]: 214 mmHg; BUN: blood urea nitrogen, average [4, 12]: 44 mg/dL; BW: body weight, average [4, 12]: 258 g; CCr: creatinine clearance, average [4, 12]: 0.64 mL/min; Cr: blood creatinine, average [4, 12]: 0.7 mg/dL; U-Pro.: urinary protein, average [4, 12]: 43.3 mg/day; BP: blood pressure, average [4, 13]: 237 mmHg; BUN: blood urea nitrogen, average [4, 13]: 56 mg/dL; BW: body weight, average [4, 13]: 286 g; CCr: creatinine clearance, average [4, 13]: 0.67 mL/min; Cr: blood creatinine, average [4, 13]: 0.8 mg/dL; HW: heart weight, average [4, 13]: 1.078 g; KW: kidney weight, average [4, 13]: 1.350 g; RW: relative weight (heart), average [4, 13]: 0.378%; RW: relative weight (kidney), average [4, 13]: 0.473%; U-Pro.: urinary protein, average [4, 13]: 65.4 mg/day; BP: blood pressure, individual animal [4, 14]: 205 mmHg and 219 mmHg and 214 mmHg; BUN: blood urea nitrogen, individual animal [4, 14]: 41 mg/dL and 45 mg/dL and 47 mg/dL; BW: body weight, individual animal [4, 14]: 263 g and 254 g and 256 g; CCr: creatinine clearance, individual animal [4, 14]: 0.83 mL/min and 0.51 mL/min and 0.58 mL/min; Cr: blood creatinine, individual animal [4, 14]: 0.6 mg/dL and 0.8 mg/dL; U-Pro.: urinary protein, individual animal [4, 14]: 38.7 mg/day and 41.5 mg/day and 49.8 mg/day; BP: blood pressure, individual animal [4, 15]: 217 mmHg and 259 mmHg and 234 mmHg; BUN: blood urea nitrogen, individual animal [4, 15]: 44 mg/dL and 50 mg/dL and 58 mg/dL; BW: body weight, individual animal [4, 15]: 299 g and 271 g and 287 g; CCr: creatinine clearance, individual animal [4, 15]: 0.79 mL/min and 0.55 mL/min and 0.67 mL/min; Cr: blood creatinine, individual animal [4, 15]: 0.7 mg/dL and 0.8 mg/dL and 1.0 mg/dL; HW: heart weight, individual animal [4, 15]: 1.113 g and 1.018 g and 1.106 g; KW: kidney weight, individual animal [4, 15]: 1.364 g and 1.319 g and 1.368 g; RW: relative weight (heart), individual animal [4, 15]: 0.372% and 0.376% and 0.385%; RW: relative weight (kidney), individual animal [4, 15]: 0.456% and 0.487% and 0.477%; U-Pro.: urinary protein, individual animal [4, 15]: 46.9 mg/day and 40.5 mg/day and 108.7 mg/day

Which “number of dead animals” value [5] does the source give for `CCCCC(=O)N(Cc1ccc(C(=O)O)cc1)c1cc(C(=O)N2CCOCC2)ccc1N(C)C` [Compound No. 7, 3-N-[[(4-Carboxyphenyl)methy)valeramido]-4-dimethylaminobenzoic acid morpholide] here?
The value was “No dead animals was found”.

Which “number of dead animals” value [5] does the source give for `CCCCC(=O)N(Cc1ccc(C(=O)O)cc1)c1cc(C(=O)N2CCOCC2)ccc1C` [Compound No. 8, 4-Methyl-3-N-[[4-(carboxyphenyl)methyl]valeramido]benzoic acid morpholide] here?
Its value is “No dead animals was found”.

With `CCCCC(=O)N(Cc1ccc(-c2ccccc2-c2nn[nH]n2)cc1)c1cc(C(=O)N2CCOCC2)ccc1N(C)C` [Compound No. 11] as the compound, how does the “number of dead animals” value [5] read?
The value was “No dead animals was found”.

For `CCCCC(=O)N(Cc1ccc(-c2nn[nH]n2)cc1)c1cc(C(=O)N2CCOCC2)ccc1N(C)C` [Compound No. 13, 4-Dimethylamino-3-N-[[4-(1H-tetrazol-5-yl)phenylmethyl]valeramido]benzoic acid morpholide], which “number of dead animals” value [5] is on record?
The value was “No dead animals was found”.

Which “antagonistic action to angiotensin II receptor (in words)” value [6] does the source give for `CCCCc1nc(Cl)c(CO)n1Cc1ccc(-c2ccccc2-c2nnn[nH]2)cc1` [DuP753, 2-butyl-4-chloro-5-(hydroxymethyl)-1-[[2'-(1H-tetrazol-5-yl)biphenyl-4-yl]methyl]imidazole] here?
The value was “potent antagonistic action to angiotensin II receptor”.

And the inhibition at 100 µM [7]?
The inhibition at 100 µM was 0%.

What about the “Blood pressure (average systolic)” value ([8]; 20 mg/kg oral gavage, after two days, control (water) 210) of the same compound?
Its value is 130 mmHg.

What about the “effect on blood pressure (in words)” value ([8]; 20 mg/kg oral, compared with control group) of the same compound?
Its value is “marked hypotension”.

Which “blood pressure (in words)” value [2, 9] does the source give for `CCOC(=O)[C@H](CCc1ccccc1)N[C@@H](C)C(=O)N1CCC[C@H]1C(=O)O` [Enalapril] here?
Its value is “lower blood pressure”.

And the “renal dysfunction (in words)” value [2, 9]?
The value was “improve the progress of renal dysfunction”.

And the “adverse reactions (in words)” value [2]?
The value was “dry cough or adverse reaction of acute renal failure”.
